Test results reported in patent publication US20060223888A1, “Valproic acid analogues and pharmaceutical composition thereof” (priority 2002, published 2006).
Values belong to the compound of their own block, whether it stands above or below them.

Experiments:
[1] = system: PTZ-induced clonic seizures; test: PTZ85 assay, latency of clonic seizures; format: in vivo; details: 1800 micromoles, male cd1/cr mice
Method: SCMET (PTZ85) Assay. Male CD1/CR mice weighing from 25-35 g are administrated test compounds (range of 5 doses) 15 minutes prior to PTZ. PTZ is administrated subcutaneously, just caudal to the cranium, at a dose of 85 mg/kg. Animals are then caged individually and observed for 15 minutes. The occurrence and latency to clonic and/or tonic convulsions are recorded. The mice are used once. Ten mice are used in each dose group. […] ED50 is determined from a graph of percentage protection vs log(dose) following the known method of Litchfield^18, where percentage protection refers to the percent of animals in each dose group which are protected against seizures. The compounds of interest were tested at an equivalent dose of 1800 micromoles on male cd1/cr mice using the PTZ85 Assay to induce clonic (repetitive seizures). Both the latency (time of seizure onset) and the number of animals protected increased with the size of the ring, or with increased lipophilicity.

[2] = system: Maximal Electroshock (MES) seizures; test: Maximal electroshock (MES) test, rats, oral, time to peak effect; format: in vivo; details: for MES N/F = number of animals protected relative to number tested: 200 mg/kg
Method: Anticonvulsant testing was conducted at the antiepileptic screening facility of the National Institute for Neurological Disorders and Stroke in Rockville, Md. Initial tests were done in mice (i.p.) followed by oral and i.p. administration to rats. Neurotoxicity was evaluated with the rotarod test. Maximal electroshock (MES) and subcutaneous methylene tetrazole (SCMET) or pentylene tetrazole (PTZ) were the most common tests performed. Typical procedures are described below. MES Assay. Male CD1/CR mice weighing from 25-35 g are administrated test compounds 15 minutes prior to MES. Mice are challenged by pulsed electrical stimulation (50 mA, 0.4 s duration, pulse width 0.5 ms, 60 pulses/sec) via corneal electrodes to induce seizure. Mice are observed post-stimulation for the onset of tonic seizures, and considered to have a tonic seizure only if there is a prolonged extension (>90° from plane of body) of the hind legs. […] Ten mice are used in each group. A number of VPA analogues and their sodium salts were tested for their efficacy as anticonvulsants and for their toxicity using the MES Assay and rotarod test.

[3] = system: rotarod test (neurotoxicity); test: Rotarod neurotoxicity test (TOX), rats, oral; format: in vivo; details: 200 mg/kg
Method: Anticonvulsant testing was conducted at the antiepileptic screening facility of the National Institute for Neurological Disorders and Stroke in Rockville, Md. Initial tests were done in mice (i.p.) followed by oral and i.p. administration to rats. Neurotoxicity was evaluated with the rotarod test. Maximal electroshock (MES) and subcutaneous methylene tetrazole (SCMET) or pentylene tetrazole (PTZ) were the most common tests performed. Typical procedures are described below.
Rotorod Test. Acute drug induced neurotoxicity is detected in mice using the standard rotorod test. An untreated mouse, when placed on a 6 rpm rotation rod, can maintain its equilibrium for a prolonged period of time.
A number of VPA analogues and their sodium salts were tested for their efficacy as anticonvulsants and for their toxicity using the MES Assay and rotarod test. In particular, the following compounds (as shown in the structures below) were tested: 332059U (sodium salt of VPA), 325071 (known compound, tested for comparison), 325073A (metabolite of VPA), 332060U (4,4-difluoro-2-propylpentanoate, fluorinated analogue of VPA), 341031, and 341032U (conjugated (E,Z)-2,3′-diene VPA analogues).

PTZ-induced seizures = test: ED50 against PTZ-induced seizures, i.p.; format: in vivo; details: Rattus norvegicus, ip, male Sprague-Dawley rats (n = 8)
Description: These compounds were investigated for anticonvulsant activity in mice^13 and rats (see results in Table 4) and found to be equivalent in potency to VPA.

[4] = Pharmacokinetics and tissue distribution (plasma, liver, brain) after i.p. administration; format: in vivo, male Sprague-Dawley rats; details: rat, FIG. 1, Table 5

melting point: 105 to 107 °C
SMILES: O=C(O)/C=C\C=C1CCCC1 [Compound 42a, (2Z)-4-Cyclopentylidenebut-2-enoic Acid]

melting point: 121 to 123 °C
SMILES: O=C(O)/C=C\C=C1CCCCC1 [Compound 42b, (2Z)-4-Cyclohexylidenebut-2-enoic Acid]

SMILES: O=C([O-])/C=C/C=C1CCCCCCC1.[Na+]
Latency of Clonic Seizures [1]: 855 s
Number of Mice Protected Against Clonic Seizures (Out of 10) [1]: 9

melting point: 86 to 88 °C
SMILES: O=C(O)/C=C\C=C1CCCCCC1 [Compound 42c, (2Z)-4-Cycloheptylidenebut-2-enoic Acid]

SMILES: C/C=C\C(=C/C(C)C)C(=O)[O-].[Na+] [341031U, Sodium (2E)-4-methyl-2-[(1Z)-prop-1-en-1-yl]pent-2-enoate]
MES N/F = number of animals protected relative to number tested ([2]; 0.25 h): 3/4
MES N/F = number of animals protected relative to number tested ([2]; 0.5 h): 2/4
MES N/F = number of animals protected relative to number tested ([2]; 1.0 h): 0/4
MES N/F = number of animals protected relative to number tested ([2]; 2.0 h): 0/4
MES N/F = number of animals protected relative to number tested ([2]; 4.0 h): 0/4
Anticonvulsant potency compared with VPA (in words) ([2]; summary of Table 2): more potent than VPA
TOX: N/F = number of animals that failed the rotarod test to numbers tested ([3]; 0.25 h): 0/4
TOX: N/F = number of animals that failed the rotarod test to numbers tested ([3]; 0.5 h): 0/4
TOX: N/F = number of animals that failed the rotarod test to numbers tested ([3]; 1.0 h): 0/4
TOX: N/F = number of animals that failed the rotarod test to numbers tested ([3]; 2.0 h): 0/4
TOX: N/F = number of animals that failed the rotarod test to numbers tested ([3]; 4.0 h): 0/4

Affinity for / accumulation in the liver (in words) [4]: markedly reduced affinities for liver
SMILES: CCC=C(CCC)C(=O)O [(E)-2-ene VPA, 2-propylpent-2-enoic acid]
ED50 (PTZ-induced seizures): 185 mg/kg

melting point: 88 to 89 °C
SMILES: O=C(O)/C=C/C=C1CCCCCC1 [Compound 41c, (2E)-4-Cycloheptylidenebut-2-enoic Acid]

melting point: 132 to 134 °C
SMILES: O=C(O)/C=C/C=C1CCCCC1 [Compound 41b, (2E)-4-Cyclohexylidenebut-2-enoic Acid]
